According to patent publication US11622964B2, “Method for destroying cellular mechanical homeostasis and promoting regeneration and repair of tissues and organs, and use thereof” (INSTITUTE OF ZOOLOGY, CHINESE ACADEMY OF SCIENCES, priority 2018, dated 2023):
“Also recorded” adds a separate entry of the source.

What was measured:
[1] = test system: bleomycin-induced pulmonary fibrosis; assay: Bleomycin-induced pulmonary fibrosis model; type: in vivo, mice; settings: 1-3 mg/kg/day
Experimental: In the invention, bleomycin (BLM) is instilled into pulmonary tracheal of ICR or C57Bl/6 mice to successfully construct a mouse model of pulmonary fibrosis, and the mice are treated by intraperitoneal administration of myosin inhibitor (−)-blebbistatin. […] The detailed processes of injecting bleomycin are as follows:
(1) Dilution of bleomycin: 50 mg/ml stock solution is diluted 25 times to obtain a final concentration of 2 mg/ml.
(2) The mice are anesthetized by intraperitoneal injection of 0.5% sodium pentobarbital (100 μl/10 g b.w.).
(3) The neck skin is disinfected by 75% alcohol, cutting the neck skin and bluntly separating the mucosa and muscles of the trachea, exposing the trachea, and taking care not to damage the thyroid.
(4) 50 μl (20 g body weight) of bleomycin is injected into the interval of tracheal cartilage by an insulin syringe at a dose of 5 mg/kg. After the needle is pulled out, putting the console upright, rotating left and right for 1 min, and then the skin is sutured. The mice eat food and drink water freely after spontaneously awakening.
The mice are identified and divided into two groups: DMSO (indicated as “Con” in FIG. 8) and (−)-blebbistatin (indicated as “Bleb” in FIG. 8, 1-3 mg/kg/day) are respectively administrated by intraperitoneal injection, wherein they are respectively dissolved in 2-5% DMSO+30% PEG400+2% Tween80+ddH2O. The survival status of the mice is recorded with intraperitoneal injection/day, tail vein injection/3 days. The result is shown in FIG. 8B, all the mice in the control group died on day 8 of treatment, while the mice in the Bleb treatment group have a survival rate of 40% on day 15 of treatment.
(6) Small animal CT scanning is performed on D8 (modeling on D14), the samples are taken and fixed after heart perfusion, slicing the samples and performing H&E and Sirius red staining. The result is shown in FIG. 8D, (−)-blebbistatin inhibits tissue damage and fibrosis during bleomycin-induced lung damage.

[2] = test system: homologous recombination repair; assay: Homologous recombination repair reporter plasmid system (flow cytometry, GFP/mRuby); type: cell-based; settings: treated for 4 h at 18 h, 24 h, 36 h after medium change; flow analysis 72 h after transfection
Experimental: First, a reporter plasmid system for homologous recombination repair is constructed, and the cells emit green fluorescence only when the foreign homologous sequence and the homologous fragment of the cell are homologously recombined. Meanwhile, mRuby red fluorescent protein is transferred to label the efficiency of transfected cells, and the efficiency of homologous recombination is determined by flow cytometry analysis of the ratio of green fluorescent protein to mRuby. 18 h after changing the medium for the transfection, the control group is treated with DMSO for 4 h; and 18 h, 24 h, and 36 h after changing the medium for the transfection, the experimental group is treated with (−)-blebbistatin for 4 h, and the HDR efficiency is analyzed by flow analysis 72 h after transfection. […] The experimental procedure is as follows: after changing the medium for the transfection, the control group is treated with DMSO; and after changing the medium for the transfection, the experimental group is treated with 250 nM RTA408; then the HDR efficiency is analyzed by flow analysis 72 h after transfection.

human fibroblasts [3] = assay: Cellular mechanical homeostasis and cell softening in human fibroblasts (phalloidin staining, immunofluorescence, quantitative PCR); type: cell-based
Excerpt: FIG. 1A is a schematic diagram of laser confocal scanning.

human fibroblasts [4] = assay: Transcriptome sequencing of treated human fibroblasts; type: cell-based
CCl4 liver damage = assay: Blood biochemistry, hepatocyte proliferation, apoptosis and liver function genes after CCl4 liver damage; type: in vivo, mice
Experimental: Blood biochemical analysis (fasting 12-16 hours before sampling) further confirms that myosin inhibitor (−)-blebbistatin may reduce the content of liver damage indicators such as ALT, AST and GGT, as shown in FIG. 4A. Further, Alb-crexmTmG hybrid mice are used for fibrosis modeling with CCl4, wherein GFP is expressed in mature hepatocytes of the mice. […] In summary, the myosin inhibitor (−)-blebbistatin promotes liver regeneration by inhibiting fibrosis of liver damage, promoting hepatocyte proliferation, and reducing apoptosis, thereby maintaining liver function.

[5] = test system: mouse hepatic stellate cells (mHSCs); assay: TGF-β1-induced transformation of mouse hepatic stellate cells into myofibroblasts; type: cell-based; settings: 20 μM, 3 ng/ml TGF-β1, 7 days
Excerpt: (§1) In this example, cell models for in vitro fibrosis are respectively built to activate mouse hepatic stellate Cells (mHSCs, FIG. 13(B)), mouse embryonic fibroblasts (MEFs FIG. 13(C)), mouse adult liver, lung, and heart-derived primary mesenchymal cells (priMCs, FIG. 13(D)), and human hepatic stellate cells (hLX-2, FIG. 13(E)) into myofibroblasts through the induction of TGF-β1. The specific experimental procedure is as shown in FIG. 9A: a medium containing 10% serum is used for the initial cell culture; after 24 hours the medium is replaced with low serum medium (or pre-starvation treatment for 16 hours) while adding 3 ng/ml TGF-β1 with DMSO or Bleb (20 μM); after 7 days the expression of myofibroblast activation marker protein (Acta2), collagen (Col1a1, Col1a2, Col3a1, and Col1a2), and matrix metalloproteinases and inhibitors (collagenases: MmP8, and MmP13; gelatinases: MmP2, and MmP9; a metalloproteinase inhibitor: Timp1/2/3) are identified.

[6] = test system: human hepatic stellate cells (hLX-2); assay: TGF-β1-induced transformation of human hepatic stellate cells into myofibroblasts; type: cell-based; settings: 20 μM, 3 ng/ml TGF-β1, 7 days
Excerpt: as §1

liver tissue = assay: Liver tissue rigidity (Young's modulus, Mark-10 ESM303) and second harmonic scanning in CCl4 chronic severe liver damage; type: in vivo, mice
Excerpt: The ICR, C57Bl/6 mice used in the experiment are purchased from SPF (Beijing) Biotechnology Co., Ltd.; elbow tweezers, finger tweezers, scissors, needle holders, suture needles, suture threads are purchased from Asone Trading Co., Ltd.; antibiotics are purchased from Gibco (15240-062). A chronic severe liver damage model induced by CCl4 (the same as Example 4) is constructed, and the mice are sacrificed by cervical dislocation after modeling. […] It can be seen from the above results that, the myosin inhibitor reduces the tissue rigidity during liver damage process.

Cc1ccc2c(c1)C(=O)[C@]1(O)CCN(c3ccccc3)C1=N2 [(−)-blebbistatin]
decrease in lung volume (small animal CT) [1]: inhibits the decrease
lung tissue damage (H&E staining) [1]: inhibits
pulmonary fibrosis (Sirius red staining, statistical analysis) [1]: inhibiting pulmonary fibrosis; also recorded: significantly improves; also recorded: inhibits
survival of mice with pulmonary fibrosis (in words) [1]: significantly promoting survival
decrease in lung volume (small animal CT) ([1]; listed as Bleb): significantly inhibits
lung tissue damage (H&E staining) ([1]; listed as Bleb): relieves lung damage
pulmonary fibrosis (Sirius red staining, statistical analysis) ([1]; listed as Bleb): relieves pulmonary fibrosis
survival of mice with pulmonary fibrosis (in words) ([1]; listed as Bleb): significantly increases
survival rate ([1]; day 15 of treatment, 10 mice per group): 40%
efficiency of homologous recombination (HDR efficiency) [2]: significantly increases
EZH2 protein level and localization (human fibroblasts [3]): down-regulated and it is localized at the cytoplasm
nucleus morphology (human fibroblasts [3]; 20 μM, vs DMSO control): irregular folds
stress fibers in the cell (phalloidin staining) (human fibroblasts [3]; 20 μM, vs DMSO control): disintegrated
cells with obvious nuclear localization of stress effect protein YAP1/TAZ (human fibroblasts [3]; after drug treatment): 35%
proteins related to regulation of cellular mechanical hardness (quantitative PCR) (human fibroblasts [3]; after small molecule treatment): significantly down-regulated
modification of H3K27 trimethylation (immunofluorescence) (human fibroblasts [3]; day 4): significantly reduced
active transcriptional region labeled with fluorouridine (human fibroblasts [3]; three biological replicates): also distributed near the periphery of the nucleus
heterochromatin HP1 proteins (human fibroblasts [3]; vs DMSO control): the control group is significantly stronger than the experimental group
DNA replication, homologous recombination, mismatch repair, nucleotide excision repair and base excision repair related genes (human fibroblasts [4]; 5-50 μM, after 6 hours): significantly upregulated
important genes involved in homologous recombination (human fibroblasts [4]; 5-50 μM, after 6 hours): significantly upregulated
genes related to initiation of regeneration (such as FST) and neurogenesis-related genes (human fibroblasts [4]; after induction for 22 days under the neural induction system): significantly upregulated
mRNA expression of general stress response genes (human fibroblasts [4]; day 1 and day 2): begins to downregulate
genes related to general stress response (HSP70 family, HSP90) (human fibroblasts [4]; early 6 hours of the induction): upregulated
Alb expression in GFP-expressing hepatocytes (CCl4 liver damage; Alb-cre x mTmG hybrid mice, CCl4 fibrosis modeling): most of the cells expressing GFP express Alb
expression of hepatocyte-related, bile duct-related and proliferation-related genes (transcriptional level) (CCl4 liver damage; compared with the control group): significantly maintains high level expression
content of liver damage indicators such as ALT, AST and GGT (blood biochemical analysis) (CCl4 liver damage; fasting 12-16 hours before sampling): reduce
apoptosis during liver damage (TUNEL staining) (CCl4 liver damage; mouse, in vivo): reduces
cell proliferation after liver damage (ALB/Ki-67 staining) (CCl4 liver damage; mouse, in vivo): significantly promotes
TGF-β1 induced transformation into myofibroblasts and extracellular matrix synthesis [5]: significantly inhibits
TGF-β1 induced transformation into myofibroblasts and extracellular matrix synthesis [6]: significantly inhibits
inhibitors of metalloproteinases [6]: down-regulation
metalloproteinases for degrading extracellular matrix [6]: promoting the up-regulation
rigidity of liver tissue (Young's modulus) (liver tissue; day 7 of the treatment): significantly reduces
massive parallel array of fibers in the liver tissue (second harmonic intravital scanning) (liver tissue; mouse, in vivo): reduced
